Laboratory results: ChEMBL document CHEMBL1140170, “The importance of micelle-bound states for the bioactivities of bifunctional peptide derivatives for delta/mu opioid receptor agonists and neurokinin 1 receptor antagonists” (J Med Chem, 2008)

Columns and labels:
[1] = target: Mu-type opioid receptor (Rattus norvegicus) (UniProt P33535)
[2] = target: Substance-P receptor (Cavia porcellus) (UniProt P30547); conditions: Hartley, Ileum
Chain of Substance-P receptor (Cavia porcellus) (P30547 whole entry): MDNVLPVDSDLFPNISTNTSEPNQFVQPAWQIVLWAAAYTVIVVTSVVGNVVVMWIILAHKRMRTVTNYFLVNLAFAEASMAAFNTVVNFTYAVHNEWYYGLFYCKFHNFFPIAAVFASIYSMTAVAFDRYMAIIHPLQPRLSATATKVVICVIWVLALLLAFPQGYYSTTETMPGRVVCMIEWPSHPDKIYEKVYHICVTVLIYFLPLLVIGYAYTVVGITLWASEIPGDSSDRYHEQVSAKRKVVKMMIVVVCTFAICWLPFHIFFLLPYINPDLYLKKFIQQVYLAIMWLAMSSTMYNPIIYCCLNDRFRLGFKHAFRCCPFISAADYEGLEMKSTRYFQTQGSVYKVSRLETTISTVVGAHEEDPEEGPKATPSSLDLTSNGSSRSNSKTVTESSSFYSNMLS

Chain of Mu-type opioid receptor (Rattus norvegicus) (P33535 whole entry): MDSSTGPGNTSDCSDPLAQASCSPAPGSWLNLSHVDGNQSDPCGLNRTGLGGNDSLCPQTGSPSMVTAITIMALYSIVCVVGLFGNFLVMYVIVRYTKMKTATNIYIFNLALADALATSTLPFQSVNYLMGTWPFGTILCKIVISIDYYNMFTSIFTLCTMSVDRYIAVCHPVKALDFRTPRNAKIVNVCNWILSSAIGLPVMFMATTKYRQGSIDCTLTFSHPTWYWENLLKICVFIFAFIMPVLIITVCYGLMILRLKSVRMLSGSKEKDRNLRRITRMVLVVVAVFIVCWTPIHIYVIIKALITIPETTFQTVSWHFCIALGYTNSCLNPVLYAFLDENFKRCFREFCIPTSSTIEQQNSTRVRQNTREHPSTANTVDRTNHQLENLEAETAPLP

CSCC[C@H](NC(=O)[C@H](Cc1ccccc1)NC(=O)CNC(=O)[C@@H](C)NC(=O)[C@@H](N)Cc1ccc(O)cc1)C(=O)N1CCC[C@H]1C(=O)N[C@@H](CC(C)C)C(=O)N[C@@H](Cc1c[nH]c2ccccc12)C(=O)OCc1cc(C(F)(F)F)cc(C(F)(F)F)c1
pEC50 [1]: 7.5 nM

CSCC[C@H](NC(=O)[C@H](Cc1ccccc1)NC(=O)CNC(=O)[C@@H](C)NC(=O)[C@@H](N)Cc1ccc(O)cc1)C(=O)N1CCC[C@H]1C(=O)N[C@@H](CC(C)C)C(=O)N[C@@H](Cc1c[nH]c2ccccc12)C(=O)NCc1cc(C(F)(F)F)cc(C(F)(F)F)c1
Ke [2]: 10 nM
pEC50 [1]: 8.2 nM

CSCC[C@H](NC(=O)[C@H](Cc1ccccc1)NC(=O)CNC(=O)[C@@H](C)NC(=O)[C@@H](N)Cc1ccc(O)cc1)C(=O)N1CCC[C@H]1C(=O)N[C@@H](CC(C)C)C(=O)N[C@@H](Cc1c[nH]c2ccccc12)C(=O)NCc1ccccc1
Ke [2]: 9.9 nM
pEC50 [1]: 7.7 nM
